Measurements as given in US11590139B2, “Substituted aminopurine compounds, compositions thereof, and methods of treatment therewith” (Signal Pharmaceuticals, LLC, priority 2014, dated 2023).

test system: Lox-IMVI melanoma cell line; test: Lox-IMVI anti-proliferative assay (growth inhibition, Cell Titer-Glo); type: cell-based, human; settings: Homo sapiens; IC50 activity level in the cell-based Lox-IMVI anti-proliferative assay; read-out: Activity
Summary of the method: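 Lox-IMVI cells in RPMI+10% FBS exposed 72 h at 37 °C to 10-point, 3-fold dilutions (0.5 nM–10 μM; 0.2% DMSO final), in duplicate. Viability by Cell Titer-Glo luminescence, with a t0 cell-number reading; data as % of DMSO control; IC50 from a four-parameter logistic fit.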

| Structure (SMILES) | IC50 [nM] |
| --- | --- |
| COc1ccc(Nc2nc3cnc(NC4CCOCC4)nc3n2[C@H]2CC[C@@H](C(N)=O)CC2)c(F)c1F [Example 380, (1s,4s)-4-(8-(2,3-difluoro-4-methoxyphenylamino)-2-(tetrahydro-2H-pyran-4-ylamino)-9H-purin-9-yl)cyclohexanecarboxamide] | > 1000 |
| N#Cc1cc(F)c(Nc2nc3cnc(NC4CCC4)nc3n2[C@H]2CC[C@@H](C(N)=O)CC2)c(F)c1 [Example 368, (1s,4s)-4-(8-(4-cyano-2,6-difluorophenylamino)-2-(cyclobutylamino)-9H-purin-9-yl)cyclohexanecarboxamide] | 500 to 1000 |
| NC(=O)[C@H]1CC[C@@H](n2c(Nc3c(F)cccc3F)nc3cnc(N[C@@H]4CCC[C@H](O)C4)nc32)CC1 [Example 348, (1S,4s)-4-(8-(2,6-difluorophenylamino)-2-((1R,3S)-3-hydroxycyclohexylamino)-9H-purin-9-yl)cyclohexanecarboxamide] | > 1000 |
| NC(=O)[C@H]1CC[C@@H](n2c(Nc3c(F)cc(Cl)cc3F)nc3cnc(NC4CCS(=O)(=O)CC4)nc32)CC1 [Example 156, (1s,4s)-4-(8-((4-chloro-2,6-difluorophenyl)amino)-2-((1,1-dioxidotetrahydro-2H-thiopyran-4-yl)amino)-9H-purin-9-yl)cyclohexane-1-carboxamide] | > 1000 |

Now from value to compound:

| IC50 [nM] | Structure (SMILES) |
| --- | --- |
| > 1000 | NC(=O)[C@H]1CC[C@@H](n2c(Nc3ccc(F)c(F)c3F)nc3cnc(N[C@@H]4CC[C@@H](O)C4)nc32)CC1 [Example 220, (1S,4s)-4-(2-((1R,3R)-3-hydroxycyclopentylamino)-8-(2,3,4-trifluorophenylamino)-9H-purin-9-yl)cyclohexanecarboxamide] |
| > 1000 | NC(=O)[C@H]1CC[C@@H](n2c(Nc3c(Cl)cc(F)cc3Cl)nc3cnc(N[C@H]4C[C@H](O)C4)nc32)CC1 [Example 284, (1s,4s)-4-(8-(2,6-dichloro-4-fluorophenylamino)-2-((1r,3r)-3-hydroxycyclobutylamino)-9H-purin-9-yl)cyclohexanecarboxamide] |
| > 1000 | NC(=O)[C@H]1CC[C@@H](n2c(Nc3cc(Cl)c(Cl)cc3Cl)nc3cnc(NC4CCOCC4)nc32)CC1 [Example 65, (1s,4s)-4-(2-(tetrahydro-2H-pyran-4-ylamino)-8-(2,4,5-trichlorophenylamino)-9H-purin-9-yl)cyclohexanecarboxamide] |
| > 1000 | NC(=O)[C@H]1CC[C@@H](n2c(Nc3ccc(Cl)cc3Cl)nc3cnc(N[C@H]4COC[C@@H]4O)nc32)CC1 [Example 319, (1R,4s)-4-(8-(2,4-dichlorophenylamino)-2-((3S,4R)-4-hydroxytetrahydrofuran-3-ylamino)-9H-purin-9-yl)cyclohexanecarboxamide] |
| > 1000 | NC(=O)[C@H]1CC[C@@H](n2c(Nc3c(F)cccc3Cl)nc3cnc(N[C@H]4C[C@H](O)C4)nc32)CC1 [Example 281, (1s,4s)-4-(8-(2-chloro-6-fluorophenylamino)-2-((1R,3r)-3-hydroxycyclobutylamino)-9H-purin-9-yl)cyclohexanecarboxamide] |
| 500 to 1000 | NC(=O)[C@H]1CC[C@@H](n2c(Nc3c(Cl)cccc3Cl)nc3cnc(NC4CCC4)nc32)CC1 [Example 51] |
| 500 to 1000 | NC(=O)[C@H]1CC[C@@H](n2c(Nc3c(Cl)cc(F)cc3Cl)nc3cnc(N[C@@H]4CCC[C@H](O)C4)nc32)CC1 [Example 354, (1S,4s)-4-(8-(2,6-dichloro-4-fluorophenylamino)-2-((1R,3S)-3-hydroxycyclohexylamino)-9H-purin-9-yl)cyclohexanecarboxamide] |
| > 1000 | NC(=O)[C@H]1CC[C@@H](n2c(Nc3c(F)cc(Cl)cc3Cl)nc3cnc(N[C@@H]4CCCOC4)nc32)CC1 [Example 190, (1S,4s)-4-(8-(2,4-dichloro-6-fluorophenylamino)-2-((R)-tetrahydro-2H-pyran-3-ylamino)-9H-purin-9-yl)cyclohexanecarboxamide] |
| > 1000 | NC(=O)[C@H]1CC[C@@H](n2c(Nc3c(F)cccc3Cl)nc3cnc(N[C@@H]4CCC[C@H]4O)nc32)CC1 [Example 250, (1S,4s)-4-(8-(2-chloro-6-fluorophenylamino)-2-((1R,2R)-2-hydroxycyclopentylamino)-9H-purin-9-yl)cyclohexanecarboxamide] |

same assay, conditions: Homo sapiens; Lox-IMVI anti-proliferative assay, IC50 activity level; read-out: Activity

| Structure (SMILES) | IC50 [nM] |
| --- | --- |
| C[C@]1(C(N)=O)CC[C@@H](n2c(Nc3c(Cl)cc(C#N)cc3Cl)nc3cnc(N[C@@H]4CCC[C@H](O)C4)nc32)CC1 [Example 569, (1S,4s)-4-(8-(2,6-dichloro-4-cyanophenylamino)-2-((1R,3S)-3-hydroxycyclohexylamino)-9H-purin-9-yl)-1-methylcyclohexanecarboxamide] | < 250 |
| CC(CN1CCOCC1)Nc1ncc2nc(Nc3c(Cl)cc(Cl)cc3Cl)n([C@H]3CC[C@@H](C(N)=O)CC3)c2n1 (stereo partly shown) [Example 531, (1s,4s)-4-(2-(1-morpholinopropan-2-ylamino)-8-(2,4,6-trichlorophenylamino)-9H-purin-9-yl)cyclohexanecarboxamide] | > 1000 |
| NC(=O)[C@H]1CC[C@@H](n2c(Nc3c(Cl)cc(F)cc3Cl)nc3cnc(N[C@H]4CCC(F)(F)C4)nc32)CC1 [Example 585, (1R,4s)-4-(8-(2,6-dichloro-4-fluorophenylamino)-2-((S)-3,3-difluorocyclopentylamino)-9H-purin-9-yl)cyclohexanecarboxamide] | 500 to 1000 |

Other lines, results leading:

| IC50 [nM] | Structure (SMILES) |
| --- | --- |
| 250 to 500 | C[C@H]1COCC[C@H]1Nc1ncc2nc(Nc3c(F)cc(Cl)cc3Cl)n([C@H]3CC[C@@H](C(N)=O)CC3)c2n1 [Example 505, (1S,4s)-4-(8-(2,4-dichloro-6-fluorophenylamino)-2-((3R,4R)-3-methyltetrahydro-2H-pyran-4-ylamino)-9H-purin-9-yl)cyclohexanecarboxamide] |
| > 1000 | NC(=O)[C@H]1CC[C@@H](n2c(Nc3c(Cl)cc(Cl)cc3Cl)nc3cnc(N[C@H]4CCCC[C@@H](O)C4)nc32)CC1 [Example 444, (1R,4s)-4-(2-((1S,3R)-3-hydroxycycloheptylamino)-8-(2,4,6-trichlorophenylamino)-9H-purin-9-yl)cyclohexanecarboxamide] |

same assay, conditions: Homo sapiens; Lox-IMVI anti-proliferative assay, cell-based; read-out: Activity (IC50 activity level)

| IC50 [nM] | Structure (SMILES) |
| --- | --- |
| > 1000 | CC(=O)N1CCC[C@@H](Nc2ncc3nc(Nc4c(Cl)cc(F)cc4Cl)n([C@H]4CC[C@@H](C(N)=O)CC4)c3n2)C1 [Example 799, (1S,4s)-4-(2-((R)-1-acetylpiperidin-3-ylamino)-8-(2,6-dichloro-4-fluorophenylamino)-9H-purin-9-yl)cyclohexanecarboxamide] |

same assay, conditions: Homo sapiens; Lox-IMVI melanoma cell line, anti-proliferative assay; read-out: Activity (IC50 activity level)

| IC50 [nM] | Structure (SMILES) |
| --- | --- |
| > 1000 | NC(=O)[C@H]1CC[C@@H](n2c(Nc3c(F)cc(Cl)cc3Cl)nc3cnc(NC[C@@H]4CCCC[C@H]4O)nc32)CC1 [Example 662, (1R,4s)-4-(8-(2,4-dichloro-6-fluorophenylamino)-2-(((1S,2R)-2-hydroxycyclohexyl)methylamino)-9H-purin-9-yl)cyclohexanecarboxamide] |
| < 250 | C[C@]1(C(N)=O)CC[C@@H](n2c(Nc3c(F)cc(Cl)cc3F)nc3cnc(N[C@H]4CCOC[C@H]4F)nc32)CC1 [Example 721, (1R,4s)-4-(8-(4-chloro-2,6-difluorophenylamino)-2-((3S,4S)-3-fluorotetrahydro-2H-pyran-4-ylamino)-9H-purin-9-yl)-1-methylcyclohexanecarboxamide] |
| 500 to 1000 | N#Cc1cc(Cl)c(Nc2nc3cnc(N[C@@H]4CCC[C@@H](O)C4)nc3n2[C@H]2CC[C@@H](C(N)=O)CC2)c(Cl)c1 [Example 684, (1S,4s)-4-(8-(2,6-dichloro-4-cyanophenylamino)-2-((1R,3R)-3-hydroxycyclohexylamino)-9H-purin-9-yl)cyclohexanecarboxamide] |
| < 250 | C[C@]1(C(N)=O)CC[C@@H](n2c(Nc3c(F)cc(F)cc3Cl)nc3cnc(NC4CCOCC4)nc32)CC1 [Example 673, (1s,4s)-4-(8-(2-chloro-4,6-difluorophenylamino)-2-(tetrahydro-2H-pyran-4-ylamino)-9H-purin-9-yl)-1-methylcyclohexanecarboxamide] |
| > 1000 | NC(=O)[C@H]1CC[C@@H](n2c(Nc3c(F)cc(F)cc3Cl)nc3cnc(N[C@@H]4CCCN(Cc5ccccc5)C4)nc32)CC1 [Example 751, (1S,4s)-4-(2-((R)-1-benzylpiperidin-3-ylamino)-8-(2-chloro-4,6-difluorophenylamino)-9H-purin-9-yl)cyclohexanecarboxamide] |
| 500 to 1000 | N#Cc1cc(F)c(Nc2nc3cnc(N[C@H]4CCOC[C@H]4F)nc3n2[C@H]2CC[C@@H](C(N)=O)CC2)c(F)c1 [Example 669, (1R,4s)-4-(8-(4-cyano-2,6-difluorophenylamino)-2-((3S,4S)-3-fluorotetrahydro-2H-pyran-4-ylamino)-9H-purin-9-yl)cyclohexanecarboxamide] |
| < 250 | NC(=O)[C@H]1CC[C@@H](n2c(Nc3c(Cl)cc(Br)cc3Cl)nc3cnc(NC4CCOCC4)nc32)CC1 [Example 690, (1s,4s)-4-(8-(4-bromo-2,6-dichlorophenylamino)-2-(tetrahydro-2H-pyran-4-ylamino)-9H-purin-9-yl)cyclohexanecarboxamide] |
| < 250 | C[C@]1(C(N)=O)CC[C@@H](n2c(Nc3c(Cl)cc(C#N)cc3Cl)nc3cnc(NC4CC(F)(F)C4)nc32)CC1 [Example 666, (1s,4s)-4-(8-(2,6-dichloro-4-cyanophenylamino)-2-(3,3-difluorocyclobutylamino)-9H-purin-9-yl)-1-methylcyclohexanecarboxamide] |
| > 1000 | NC(=O)[C@H]1CC[C@@H](n2c(Nc3c(F)cc(F)cc3F)nc3cnc(NC[C@@H]4CCCC[C@@H]4O)nc32)CC1 [Example 652, (1R,4s)-4-(2-(((1S,2S)-2-hydroxycyclohexyl)methylamino)-8-(2,4,6-trifluorophenylamino)-9H-purin-9-yl)cyclohexanecarboxamide] |
